# Source: patent US5173490A, “Benzisoxazole and benzisothiazole compounds” (Adir et Compagnie, priority 1991, dated 1992)
# Tested on: stereotypies (bruxism) induced by methyl phenidate
# Experiment: Test of the stereotypies induced by methyl phenidate in rats (inhibition of bruxism)
# Type: in vivo, male Wistar rats
# Settings: Rattus norvegicus, ip, 0.5 h, read-out: ED50 (mean effective dose permitting inhibition of bruxism by 50%)
# Protocol: 24 male Wistar rats which weighed between 220 and 240 g and which had eaten nothing for approximately 24 hours were used for this test. Each animal receives a first treatment (reference compound, compound of the invention, or solvent) at a given time before a second treatment (methyl phenidate or physiological serum), which is effected by the i.p. route at the time designated T0. Among the animals used for a test, […] serve as control and receive the following treatments: serum+serum i.p.: 1 animal (serum control); solvent+ 40 mg/kg i.p. methyl phenidate: 2 animals (40 mg/kg i.p. methyl phenidate control); and solvent+0.16, 0.63, 2.5 or 10 mg/kg i.p. of methyl phenidate: 1 animal (0.16, 0.63, 2.5 or 10 mg/kg i.p. methyl phenidate controls).
# The test products were administered at given times before the injection of 40 mg/kg i.p. of methyl phenidate at T0. Each animal is observed for a period of 10 seconds. Observations of behaviour were carried out 30 minutes after the treatment with methyl phenidate. A total of 10 observation periods is carried out for each rat at time T30 min. During these observations, the presence (1) or absence (0) of stereotypy is noted.
row,SMILES,ED50 [mg/kg]
1,"CN(C)CCCN1c2ccccc2Sc2ccc(Cl)cc21 [chlorpromazine, reference compound]",1.4

# Same assay, conditions: Rattus norvegicus, ip, 0.5 h; rats; i.p.; given before 40 mg/kg i.p. methyl phenidate; observed 30 min after methyl phenidate; read-out: ED50 (mean effective dose permitting inhibition of bruxism by 50%)
row,SMILES,ED50 [mg/kg]
1,"c1ccc2c(c1)CC2CN1CCN(c2noc3ccccc23)CC1 (racemic) [Example 6, (R,S)-3-{1-[(benzocyclobutan-1-yl)methyl]piperazin-4-yl}-1,2-benzisoxazole]",1.25
2,"Fc1ccc2c(N3CCN(CC4Cc5ccccc54)CC3)noc2c1 (racemic) [Example 1, (R,S)-3-{1-[(benzocyclobutan-1-yl)methyl]piperazin-4-yl}-6-fluoro-1,2-benzisoxazole]",0.31
3,"c1ccc2c(c1)CC2CN1CCN(c2nsc3ccccc23)CC1 (racemic) [Example 4, (R,S)-3-{1-[(benzocyclobutan-1-yl)methyl]piperazin-4-yl}-1,2-benzisothiazole]",10
4,"COc1cc2c(cc1OC)C(CN1CCN(c3noc4cc(F)ccc34)CC1)C2 (racemic) [Example 17, (R,S)-3-{1-[(4,5-dimethoxybenzocyclobutan-1-yl)methyl]-piperazin-4-yl}-6-fluoro-1,2-benzisoxazole]",2.5
5,"Fc1ccc2c(N3CCN(CC4CCc5ccccc54)CC3)noc2c1 (racemic) [Example 18, (R,S)-3-{1-[(indan-1-yl)methyl]piperazin-4-yl}-6-fluoro-1,2-benzisoxazole]",10
6,"COc1cc2c(cc1OC)C(CN1CCN(c3noc4ccccc34)CC1)C2 (racemic) [Example 19, (R,S)-3-{1-[(4,5-dimethoxybenzocyclobutan-1-yl)-methyl]piperazin-4-yl}-1,2-benzisoxazole]",1.25
